These results are taken from patent US20200361895A1, “NOVEL SULFONAMIDE CARBOXAMIDE COMPOUNDS” (Inflazome Limited, priority 2017, published 2020).

Structures can show the parent of a compound that is named as a salt. Bounds are passed on as bounds.

NLRP3, sequence (Q96P20 whole entry): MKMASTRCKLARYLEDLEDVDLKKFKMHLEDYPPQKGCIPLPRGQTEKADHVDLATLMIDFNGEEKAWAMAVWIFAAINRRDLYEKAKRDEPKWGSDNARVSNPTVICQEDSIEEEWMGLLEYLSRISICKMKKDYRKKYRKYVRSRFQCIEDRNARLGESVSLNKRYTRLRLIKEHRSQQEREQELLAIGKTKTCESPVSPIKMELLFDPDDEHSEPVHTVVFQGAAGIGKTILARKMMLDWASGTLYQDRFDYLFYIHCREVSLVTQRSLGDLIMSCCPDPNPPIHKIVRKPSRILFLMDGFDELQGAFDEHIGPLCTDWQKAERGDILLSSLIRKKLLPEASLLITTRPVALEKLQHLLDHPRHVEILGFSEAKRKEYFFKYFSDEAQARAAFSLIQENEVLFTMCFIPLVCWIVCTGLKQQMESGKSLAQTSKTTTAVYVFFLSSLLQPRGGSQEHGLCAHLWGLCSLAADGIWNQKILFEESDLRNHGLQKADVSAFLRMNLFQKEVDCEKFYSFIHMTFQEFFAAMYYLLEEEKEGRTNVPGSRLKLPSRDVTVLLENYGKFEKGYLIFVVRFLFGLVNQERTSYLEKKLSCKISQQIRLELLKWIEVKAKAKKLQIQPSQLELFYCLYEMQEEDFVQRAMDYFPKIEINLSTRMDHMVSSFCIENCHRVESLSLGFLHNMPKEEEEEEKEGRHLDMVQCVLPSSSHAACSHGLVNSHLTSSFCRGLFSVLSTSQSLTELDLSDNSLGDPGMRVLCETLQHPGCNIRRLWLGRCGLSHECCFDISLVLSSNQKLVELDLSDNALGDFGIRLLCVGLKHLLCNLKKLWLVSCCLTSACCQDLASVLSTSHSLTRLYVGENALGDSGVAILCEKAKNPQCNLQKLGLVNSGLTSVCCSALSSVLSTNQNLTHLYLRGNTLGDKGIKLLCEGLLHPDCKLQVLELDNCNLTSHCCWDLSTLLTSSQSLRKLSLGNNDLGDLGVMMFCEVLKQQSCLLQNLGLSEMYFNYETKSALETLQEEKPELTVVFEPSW

The assay concerns the target NLRP3 (Homo sapiens, UniProt Q96P20). The experiment in a line: THP-1 cells pyroptosis assay (LPS + nigericin, resazurin readout; THP IC50). In kind it is cell-based. Also on record: Seed THP-1 cells (25,000 cells/well) containing 1.0 μg/ml LPS in 40 μl of RPMI medium; host or cells: THP-1 cells. The method, then:
THP-1 cells (ATCC #TIB-202) were grown in RPMI containing L-glutamine (Gibco #11835) supplemented with 1 mM sodium pyruvate (Sigma #S8636) and penicillin (100 units/ml)/streptomycin (0.1 mg/ml) (Sigma #P4333) in 10% Fetal Bovine Serum (FBS) (Sigma #F0804). The cells were routinely passaged and grown to confluency (˜10^6 cells/ml). On the day of the experiment, THP-1 cells were harvested and resuspended into RPMI medium (without FBS). The cells were then counted and viability (>90%) checked by Trypan blue (Sigma #T8154). Appropriate dilutions were made to give a concentration of 625,000 cells/ml. To this diluted cell solution was added LPS (Sigma #L4524) to give a 1 μg/ml Final Assay Concentration (FAC). 40 μl of the final preparation was aliquoted into each well of a 96-well plate. The plate thus prepared was used for compound screening.
The following method step-by-step assay was followed for compound screening. • 1. Seed THP-1 cells (25,000 cells/well) containing 1.0 μg/ml LPS in 40 μl of RPMI medium (without FBS) in 96-well, black walled, clear bottom cell culture plates coated with poly-D-lysine (VWR #734-0317) • 2. Add 5 μcompound (8 points half-log dilution, with 10 μM top dose) or vehicle (DMSO 0.1% FAC) to the appropriate wells • 3. Incubate for 3 hrs at 37° C. and 5% CO2 • 4. Add 5 μnigericin (Sigma #N7143) (FAC 5 μM) to all wells • 5. Incubate for 1 hr at 37° C. and 5% CO2 • 6. At the end of the incubation period, spin plates at 300×g for 3 mins and remove supernatant • 7. Then add 50 μl of resazurin (Sigma #R7017) (FAC 100 μM resazurin in RPMI medium without FBS) and incubate plates for a further 1-2 hrs at 37° C. and 5% CO2 • 8. Plates were read in an Envision reader at Ex 560 nm and Em 590 nm • 9. IC50 data is fitted to a non-linear regression equation (log inhibitor vs response-variable slope 4-parameters)
On the technique in general: The colour change of resazurin is a common sign of viable cells or microbes.
Turning to `COc1cc(-c2ccc3ncccc3c2NC(=O)NS(=O)(=O)c2ccn(C(C)C)n2)ccn1` [Example 212, 1-Isopropyl-N-((6-(2-methoxypyridin-4-yl)quinolin-5-yl)carbamoyl)-1H-pyrazole-3-sulfonamide], the half-maximal inhibitory concentration (IC50) is at most 5 µM.

In the case of `COc1cc(-c2cc(F)cc(C(C)C)c2NC(=O)NS(=O)(=O)C2CN(C(C)C)C2)ccn1` [Example 75, N-((4-Fluoro-2-isopropyl-6-(2-methoxypyridin-4-yl)phenyl)carbamoyl)-1-isopropylazetidine-3-sulfonamide], the 50% inhibitory concentration (IC50) was at most 0.5 µM.

In the case of `O=C(Nc1c(C2CCOCC2)ccc2c1CCC2)NS(=O)(=O)c1ccn(C2CC2)n1` [Example 254, 1-Cyclopropyl-N-((5-(tetrahydro-2H-pyran-4-yl)-2,3-dihydro-1H-inden-4-yl)carbamoyl)-1H-pyrazole-3-sulfonamide], the IC50 was at most 5 µM.

In the case of `COc1cc(-c2cc3c(cc2NC(=O)NS(=O)(=O)c2ccn(C4CC4)n2)CCC3)ccn1` [Example 144, 1-Cyclopropyl-N-((6-(2-methoxypyridin-4-yl)-2,3-dihydro-1H-inden-5-yl)carbamoyl)-1H-pyrazole-3-sulfonamide], the half-maximal inhibitory concentration (IC50) was at most 5 µM.

Consider `CC(C)c1cc(F)cc(-c2ccnc(C#N)c2)c1NC(=O)NS(=O)(=O)c1cncc(N(C)C)n1` [Example 102, N-((2-(2-Cyanopyridin-4-yl)-4-fluoro-6-isopropylphenyl)carbamoyl)-6-(dimethylamino)pyrazine-2-sulfonamide], for which the IC50 was at most 0.5 µM.

Take `CCn1nc(S(=O)(=O)NC(=O)Nc2c(-c3cccc(OC)c3)ccc3c2CCC3)cc1CN(C)C` [Example 194, 5-((Dimethylamino)methyl)-1-ethyl-N-((5-(3-methoxyphenyl)-2,3-dihydro-1H-inden-4-yl)carbamoyl)-1H-pyrazole-3-sulfonamide]: the IC50 is at most 1 µM.

Take `CN1CCC(CS(=O)(=O)NC(=O)Nc2c(-c3ccncc3)cc(F)c3c2CCC3)C1` (stereo not shown) [Example 165, N-((7-Fluoro-5-(pyridin-4-yl)-2,3-dihydro-1H-inden-4-yl)carbamoyl)-1-(1-methylpyrrolidin-3-yl) methanesulfonamide]: the concentration for half-maximal inhibition (IC50) was at most 5 µM.

Take `COc1cc(-c2ccc3c(c2NC(=O)NS(=O)(=O)C(C)c2ccccc2)CCC3)ccn1` (stereo not shown) [Example 141, N-((5-(2-Methoxypyridin-4-yl)-2,3-dihydro-1H-inden-4-yl)carbamoyl)-1-phenylethanesulfonamide]: the concentration for half-maximal inhibition (IC50) is at most 1 µM.

As for `CC(C)c1cc(F)cc(-c2ccnc(C(N)=O)c2)c1NC(=O)NS(=O)(=O)c1cc(CN(C)C)n(C)n1` [Example 67, 4-(2-(3-((5-((Dimethylamino)methyl)-1-methyl-1H-pyrazol-3-yl)sulfonyl)ureido)-5-fluoro-3-isopropylphenyl)picolinamide], the IC50 was at most 5 µM.

`CCN1CCC(S(=O)(=O)NC(=O)Nc2c(-c3ccnc(OC)c3)cc(F)cc2C(C)C)CC1` [Example 100, 1-Ethyl-N-((4-fluoro-2-isopropyl-6-(2-methoxypyridin-4-yl)phenyl)carbamoyl)piperidine-4-sulfonamide, potassium salt]: the IC50 was at most 5 µM.

As to `COc1cc(-c2cc(F)cc(C(C)C)c2NC(=O)NS(=O)(=O)C2CN(C3CCC3)C2)ccn1` [Example 79, 1-Cyclobutyl-N-((4-fluoro-2-isopropyl-6-(2-methoxypyridin-4-yl)phenyl)carbamoyl)azetidine-3-sulfonamide], the half-maximal inhibitory concentration (IC50) is at most 0.5 µM.

Consider `Cn1ccc(-c2ccc3c(c2NC(=O)NS(=O)(=O)c2ccn(C4CC4)n2)CCC3)cc1=O` [Example 272, 1-Cyclopropyl-N-((5-(1-methyl-2-oxo-1,2-dihydropyridin-4-yl)-2,3-dihydro-1H-inden-4-yl)carbamoyl)-1H-pyrazole-3-sulfonamide, sodium salt], for which the IC50 was at most 5 µM.

In the case of `Cc1cc(-c2ccc3c(c2NC(=O)NS(=O)(=O)c2ccn(C(C)C)n2)CCC3)n(C)n1` [Example 220, N-((5-(1,3-Dimethyl-1H-pyrazol-5-yl)-2,3-dihydro-1H-inden-4-yl)carbamoyl)-1-isopropyl-1H-pyrazole-3-sulfonamide], the IC50 was at most 10 µM.

On to `CCN1CC(S(=O)(=O)NC(=O)Nc2c(-c3ccncc3)cc(F)c3c2CCC3)C1` [Example 85, 1-Ethyl-N-((7-fluoro-5(pyridin-4-yl)-2,3-dihydro-1H-inden-4-yl)carbamoyl)azetidine-3-sulfonamide], for which the IC50 is at most 1 µM.

Take `O=C(Nc1c(-c2ccncc2)cc(F)c2c1CCC2)NS(=O)(=O)Cc1ccccc1` [Example 130, N-((7-Fluoro-5-(pyridin-4-yl)-2,3-dihydro-1H-inden-4-yl)carbamoyl)-1-phenylmethanesulfonamide]: the half-maximal inhibitory concentration (IC50) is at most 5 µM.

Regarding `CC(C)c1cccc(-n2ccnc2)c1NC(=O)NS(=O)(=O)c1ccn(C(C)C)n1` [Example 204, N-((2-(1H-Imidazol-1-yl)-6-isopropylphenyl)carbamoyl)-1-isopropyl-1H-pyrazole-3-sulfonamide], the IC50 is at most 5 µM.

Regarding `COc1cc(-c2cc(F)cc(C(C)C)c2NC(=O)NS(=O)(=O)C(C)c2ccccc2)ccn1` (stereo not shown) [Example 140, N-((4-Fluoro-2-isopropyl-6-(2-methoxypyridin-4-yl)phenyl)carbamoyl)-1-phenylethanesulfonamide], the concentration for half-maximal inhibition (IC50) was at most 5 µM.

`CC(C)n1ccc(S(=O)(=O)NC(=O)Nc2c(-c3ccnc4c3CCO4)ccc3c2CCC3)n1` [Example 283, N-((5-(2,3-Dihydrofuro[2,3-b]pyridin-4-yl)-2,3-dihydro-1H-inden-4-yl)carbamoyl)-1-isopropyl-1H-pyrazole-3-sulfonamide]: the concentration for half-maximal inhibition (IC50) was at most 5 µM.

Regarding `Cc1ncccc1-c1cc(F)cc(C(C)C)c1NC(=O)NS(=O)(=O)c1ccn(C(C)C)n1` [Example 14, N-((4-Fluoro-2-iso-propyl-6-(2-methylpyridin-3-yl)phenyl)carbamoyl)-1-iso-propyl-1H-pyrazole-3-sulfonamide, partial ammonium salt], the half-maximal inhibitory concentration (IC50) was at most 5 µM.

In the case of `COc1cc(-c2ccc3c(c2NC(=O)NS(=O)(=O)OC(C)C)CCC3)ccn1` [Example 256, Isopropyl (5-(2-methoxypyridin-4-yl)-2,3-dihydro-1H-inden-4-yl)carbamoylsulfamate, sodium salt], the IC50 was at most 1 µM.

For `COc1cc(-c2ccc3c(c2NC(=O)NS(=O)(=O)CC(C)C)CCC3)ccn1` [Example 133, N-((5-(2-Methoxypyridin-4-yl)-2,3-dihydro-1H-inden-4-yl)carbamoyl)-2-methylpropane-1-sulfonamide], the IC50 is at most 0.5 µM.

As for `CC(C)c1cc(F)cc(-c2ccc(C#N)cc2)c1NC(=O)NS(=O)(=O)c1ccn(C(C)C)n1` [Example 9, N-((4′-Cyano-5-fluoro-3-iso-propyl-[1,1′-biphenyl]-2-yl)carbamoyl)-1-iso-propyl-1H-pyrazole-3-sulfonamide, sodium salt], the IC50 was at most 5 µM.

As to `O=C(Nc1c(-c2ccncc2)cc(F)c2c1CCC2)NS(=O)(=O)C1CN(Cc2cccnc2)C1` [Example 88, N-((7-Fluoro-5-(pyridin-4-yl)-2,3-dihydro-1H-inden-4-yl)carbamoyl)-1-(pyridin-3-ylmethyl)azetidine-3-sulfonamide], the IC50 is at most 1 µM.

Take `COc1cc(-c2cc(F)cc(C(C)C)c2NC(=O)NS(=O)(=O)c2nccnc2C(F)F)ccn1` [Example 111, 3-(Difluoromethyl)-N-((4-fluoro-2-isopropyl-6-(2-methoxypyridin-4-yl)phenyl)carbamoyl)pyrazine-2-sulfonamide]: the half-inhibitory concentration (IC50) is at most 5 µM.

Consider `CCN1CC(S(=O)(=O)NC(=O)Nc2c(-c3ccnc(C#N)c3)cc(F)cc2C(C)C)C1` [Example 82, N-((2-(2-Cyanopyridin-4-yl)-4-fluoro-6-isopropylphenyl)carbamoyl)-1-ethylazetidine-3-sulfonamide], for which the half-inhibitory concentration (IC50) is at most 10 µM.

On to `CC(C)c1cc(F)cc(-c2ccnc(C#N)c2)c1NC(=O)NS(=O)(=O)C1CN(Cc2cccnc2)C1` [Example 86, N-((2-(2-Cyanopyridin-4-yl)-4-fluoro-6-isopropylphenyl)carbamoyl)-1-(pyridin-3-ylmethyl)azetidine-3-sulfonamide], for which the IC50 was at most 10 µM.

Turning to `COc1cc(-c2cc(F)cc(C(C)C)c2NC(=O)NS(=O)(=O)CCc2ccccc2)ccn1` [Example 136, N-((4-Fluoro-2-isopropyl-6-(2-methoxypyridin-4-yl)phenyl)carbamoyl)-2-phenylethanesulfonamide], the IC50 is at most 0.5 µM.

With `COc1cc(-c2cc(F)cc(C(C)C)c2NC(=O)NS(=O)(=O)Cc2ccccc2)ccn1` [Example 128, N-((4-Fluoro-2-isopropyl-6-(2-methoxypyridin-4-yl)phenyl)carbamoyl)-1-phenylmethanesulfonamide], the IC50 is at most 1 µM.

As a reminder, the IC50 is the concentration at which inhibition is half-maximal.
